Values of other authors as cited in US20100280071A1, “BENZIMIDAZOLES WHICH HAVE ACTIVITY AT M1 RECEPTOR AND THEIR USES IN MEDICINE” (priority 2006, published 2010).

Legend:
c-fos expression = settings: prefrontal cortex, nucleus accumbens, striatum; rats
[1] = tested on: A10 and A9 dopamine cells; settings: A10 versus A9 cells
[2] = tested on: unilateral 6-OH-DA lesioned rats
[3] = in vivo

- EPS liability (monkeys): without EPS liability
Compound: CCCCCCOc1nsnc1C1=CCCN(C)C1 [xanomeline]
- effect on amphetamine induced locomotion (rats): reverses
- c-fos expression (c-fos expression): induces c-fos expression in prefrontal cortex and nucleus accumbens, but not in striatum
- dopamine cell firing [1]: inhibit A10, but not A9
- effect on apomorphine induced climbing (mice): reverses
- effect on amphetamine-induced motor unrest (monkeys): reverses
- psychotic symptoms such as suspiciousness, hallucinations and delusions (Alzheimer's patients; Alzheimer's patients): reduce psychotic symptoms
- side effects (Alzheimer's patients; attributed to relatively non-selective nature of the compound): dose-limiting peripheral cholinergic side effects
- effect on dopamine agonist driven turning [2]: reverses
- conditioned avoidance [3]: inhibit
